This passage reports IC50 and melting point results from patent US7713994B2 (Wyeth LLC, priority 2005, dated 2010).

One may read the IC50 as the concentration that gives 50% inhibition. By melting point is commonly meant the temperature of the solid-liquid transition.

The structures appear in SMILES notation.

Series [1] has as its system BT474. The series is described as follows: Cytotoxicity assay (SRB), BT474. It is filed as cell-based. The settings on record: Homo sapiens, BT-474, 144 h, BT474 cells, SRB, 6 days; read-out: In Vitro Cellular Activity IC50 BT474. In a few lines: (§1)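 Cells grown in RPMI 1640 with 5% FBS were treated with compound for three days (HCT-116, LoVo, MCF-7) or six days (BT474). Viable cell mass was quantified by sulforhodamine B staining of TCA-fixed protein and read at 540 nm.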

Series [2] addresses T1, cyclin B/CDK1 enzyme (Homo sapiens, UniProt P06493).
T1 construct: purchased New England BioLabs; host or cells: Sf9 insect cells, recombinant baculovirus
The series is described as follows: CDK1 ELISA kinase assay (phospho-Rb ser 795 detection). The series is classed as biochemical. To be noted: In Vitro Enzyme Assays, read-out: CDK1 IC50. In a few lines: (§2)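 ELISA format: plate-bound GST-Rb, 200 μM ATP, Sf9 cyclin/CDK enzyme, 1 h at 30° C; then anti-pRb Ser795 primary overnight at 4° C, HRP secondary, TMB. IC50 after no-substrate background subtraction.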

Series [3] addresses T2, cyclin E/CDK2 enzyme (Homo sapiens, UniProt P24941).
T2 construct: made in house; host or cells: Sf9 insect cells, recombinant baculovirus
The series is described as follows: CDK2 ELISA kinase assay (phospho-Rb ser 795 detection). It is filed as biochemical. The settings on record: In Vitro Enzyme Assays, read-out: CDK2 IC50. The gist of the method: as §2

Series [4] has as its system HCT-116. The series is described as follows: Cytotoxicity assay (SRB), HCT-116. The settings on record: Homo sapiens, HCT-116, 72 h, HCT116 cells, SRB, three days; read-out: In Vitro Cellular Activity IC50 HCT116. The series is classed as cell-based. The gist of the method:
as §1

The subject of series [5] is LoVo. The series is described as follows: Cytotoxicity assay (SRB), LoVo. To be noted: Homo sapiens, LoVo, 72 h, LoVo cells, SRB, three days; read-out: In Vitro Cellular Activity IC50 LOVO. The series is classed as cell-based. In a few lines: as §1
Series [6] deals with MCF-7. The series is described as follows: Cytotoxicity assay (SRB), MCF-7. To be noted: Homo sapiens, MCF7, 72 h, MCF-7 cells, SRB, three days; read-out: In Vitro Cellular Activity IC50 MCF-7. It is filed as cell-based. In a few lines: as §1
For series [7], the target named is T3, cyclin D1/cdk 4 enzyme (Homo sapiens, UniProt P11802).
T3 construct: made in house; host or cells: Sf9 insect cells, recombinant baculovirus
T3 sequence (P11802 whole entry, species assumed): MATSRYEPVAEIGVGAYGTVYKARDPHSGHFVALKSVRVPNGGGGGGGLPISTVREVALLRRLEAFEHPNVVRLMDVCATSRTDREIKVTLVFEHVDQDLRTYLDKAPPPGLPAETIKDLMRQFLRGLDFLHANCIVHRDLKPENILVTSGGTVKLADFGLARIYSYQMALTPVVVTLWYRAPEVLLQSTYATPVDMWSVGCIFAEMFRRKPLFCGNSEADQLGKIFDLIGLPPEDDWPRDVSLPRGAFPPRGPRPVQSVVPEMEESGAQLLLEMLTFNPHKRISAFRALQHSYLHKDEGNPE
T3 sequence (P24385 whole entry partner, species assumed): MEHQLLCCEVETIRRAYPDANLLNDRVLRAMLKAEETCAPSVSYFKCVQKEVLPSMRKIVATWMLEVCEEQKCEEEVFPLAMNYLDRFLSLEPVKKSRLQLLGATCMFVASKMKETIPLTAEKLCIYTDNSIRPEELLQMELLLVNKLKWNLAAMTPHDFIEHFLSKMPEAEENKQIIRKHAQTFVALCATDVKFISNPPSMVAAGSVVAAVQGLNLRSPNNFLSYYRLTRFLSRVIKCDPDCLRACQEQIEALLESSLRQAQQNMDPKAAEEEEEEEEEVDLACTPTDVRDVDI
The series is described as follows: CDK4 ELISA kinase assay (phospho-Rb ser 795 detection). It is filed as biochemical. The settings on record: In Vitro Enzyme Assays, 200 μM ATP, read-out: CDK4 IC50. The gist of the method:
as §2

T1 sequence (P06493 whole entry): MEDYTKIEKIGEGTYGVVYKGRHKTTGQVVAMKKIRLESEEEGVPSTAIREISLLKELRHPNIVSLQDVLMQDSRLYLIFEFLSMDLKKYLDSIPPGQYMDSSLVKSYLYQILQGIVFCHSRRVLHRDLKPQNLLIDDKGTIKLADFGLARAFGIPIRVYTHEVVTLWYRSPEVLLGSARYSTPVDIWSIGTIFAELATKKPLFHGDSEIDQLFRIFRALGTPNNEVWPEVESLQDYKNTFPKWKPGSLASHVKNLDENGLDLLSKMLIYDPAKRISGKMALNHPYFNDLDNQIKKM
T1 sequence (P14635 whole entry partner): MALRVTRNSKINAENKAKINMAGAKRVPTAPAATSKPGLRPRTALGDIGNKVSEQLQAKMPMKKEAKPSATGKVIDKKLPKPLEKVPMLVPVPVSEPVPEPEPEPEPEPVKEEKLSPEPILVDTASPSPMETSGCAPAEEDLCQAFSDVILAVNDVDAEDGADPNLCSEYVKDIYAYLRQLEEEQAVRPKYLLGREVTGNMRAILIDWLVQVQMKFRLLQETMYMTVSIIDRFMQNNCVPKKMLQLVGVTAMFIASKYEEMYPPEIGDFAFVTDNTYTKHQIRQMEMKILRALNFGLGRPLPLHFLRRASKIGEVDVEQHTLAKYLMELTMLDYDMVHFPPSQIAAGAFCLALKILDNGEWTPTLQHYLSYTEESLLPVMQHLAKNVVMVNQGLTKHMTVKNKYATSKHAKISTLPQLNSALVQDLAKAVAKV

For the compound `CN1CCN(c2ccc(N/C=C3\C(=O)NC(=O)c4ccc(-c5ccoc5)cc43)cc2F)CC1` [Example 297, (4Z)-4-({[3-Fluoro-4-(4-methylpiperazin-1-yl)phenyl]amino}methylene)-6-(3-furyl)isoquinoline-1,3(2H,4H)-dione], the melting point lay in the range of 203 to 204 °C. Besides, in series [1], the IC50 worked out at 1200 nM. Besides, the 50% inhibitory concentration (IC50) in series [2] was more than 50000 nM. Moreover, in series [3], the IC50 was more than 50000 nM. Moreover, the IC50 in series [4] is 2200 nM. Besides, the IC50 in series [5] was determined as 2000 nM. Moreover, the IC50 in series [6] is 950 nM. The IC50 in series [7] is 80 nM.

In turn, `COC[C@@H]1CCCN1Cc1ccc(N/C=C2\C(=O)NC(=O)c3ccc(-c4ccc(F)cc4)cc32)cc1` [Example 299, (4Z)-6-(4-Fluorophenyl)-4-{[(4-{[(2S)-2-(methoxymethyl)pyrrolidin-1-yl]methyl}phenyl)amino]methylene}isoquinoline-1,3(2H,4H)-dione] had a melting point of 162 to 163 °C. Also, the IC50 in series [1] amounted to 2000 nM. The IC50 in series [2] is more than 50000 nM. Besides, the IC50 in series [3] was more than 50000 nM. Besides, the IC50 in series [4] is 3000 nM. For the same compound, the IC50 in series [5] is 7700 nM. Besides, the IC50 in series [6] was found to be 800 nM. Further, the IC50 in series [7] came to 190 nM.

Consider `O=C1NC(=O)c2ccc(-n3cccc3)cc2C1=CNCc1cc(=O)c(O)co1` [Example 312, 4-{[(5-Hydroxy-4-oxo-4H-pyran-2-ylmethyl)-amino]-methylene}-6-pyrrol-1-yl-4H-isoquinoline-1,3-dione], for which the melting point was 310 to 312 °C (dec.). Moreover, the IC50 in series [1] worked out at 39000 nM. Also, in series [2], the IC50 is more than 50000 nM. Further, the IC50 in series [3] came out at 21600 nM. The 50% inhibitory concentration (IC50) in series [4] was more than 50000 nM. Besides, the IC50 in series [5] was more than 50000 nM. Moreover, in series [6], the IC50 was more than 50000 nM. The IC50 in series [7] is 270 nM.

On to `COc1coc(CNC=C2C(=O)NC(=O)c3ccc(Br)cc32)cc1=O` [Example 316, 6-Bromo-4-{[(5-methoxy-4-oxo-4H-pyran-2-ylmethyl)-amino]-methylene}-4H-isoquinoline-1,3-dione], for which the melting point was 259 to 261 °C (dec.). Besides, in series [1], the IC50 was 4900 nM. In series [2], the 50% inhibitory concentration (IC50) was more than 50000 nM. Also, the IC50 in series [3] is 16900 nM. In series [4], the IC50 is 8900 nM. Besides, the IC50 in series [5] came to 5700 nM. In series [6], the IC50 came out at 9000 nM. In series [7], the IC50 worked out at 1300 nM.

As for `COc1coc(CNC=C2C(=O)NC(=O)c3ccc(-n4cccc4)cc32)cc1=O` [Example 317, 4-{[(5-Methoxy-4-oxo-4H-pyran-2-ylmethyl)-amino]-methylene}-6-pyrrol-1-yl-4H-isoquinoline-1,3-dione], the melting point is 251 to 254 °C (dec.). The IC50 in series [1] is 5200 nM. Besides, the IC50 in series [2] is more than 50000 nM. Also, the IC50 in series [3] is more than 50000 nM. The 50% inhibitory concentration (IC50) in series [4] stood at 12000 nM. The IC50 in series [5] was 4700 nM. Further, in series [6], the IC50 was 8400 nM. For the same compound, the IC50 in series [7] is 40 nM.

On to `C[C@@H]1CN(c2ccc(N/C=C3\C(=O)NC(=O)c4ccc(I)cc43)cc2F)C[C@H](C)N1` [Example 319, (4Z)-4-[({4-[(3R,5S)-3,5-Dimethylpiperazin-1-yl]-3-fluorophenyl}amino)methylene]-6-iodoisoquinoline-1,3(2H,4H)-dione], for which the melting point lay in the range of 173 to 174 °C. In addition, the IC50 in series [1] came out at 3100 nM. Further, the IC50 in series [2] was more than 50000 nM. For the same compound, the IC50 in series [3] is more than 50000 nM. Also, in series [4], the IC50 turned out to be 1500 nM. Besides, the IC50 in series [5] came to 2100 nM. Moreover, the IC50 in series [6] came to 2600 nM. In addition, the IC50 in series [7] was 1400 nM.

In the case of `C[C@@H]1CN(c2ccc(N/C=C3\C(=O)NC(=O)c4ccc(-c5ccoc5)cc43)cc2F)C[C@H](C)N1` [Example 324, (4Z)-4-[({4-[(3R,5S)-3,5-Dimethylpiperazin-1-yl]-3-fluorophenyl}amino)methylene]-6-(3-furyl)isoquinoline-1,3(2H,4H)-dione], the melting point was in the range of 222 to 223 °C. The IC50 in series [1] was 740 nM. Further, the IC50 in series [2] was more than 50000 nM. The IC50 in series [3] is more than 50000 nM. In series [4], the IC50 amounted to 960 nM. Besides, the IC50 in series [5] was 3300 nM. In addition, the IC50 in series [6] worked out at 830 nM. Further, in series [7], the IC50 was determined as 170 nM.

Compound `C[C@@H]1CN(c2ccc(N/C=C3\C(=O)NC(=O)c4ccc(-c5ccsc5)cc43)cc2F)C[C@H](C)N1` [Example 325, (4Z)-4-[({4-[(3R,5S)-3,5-Dimethylpiperazin-1-yl]-3-fluorophenyl}amino)methylene]-6-thien-3-ylisoquinoline-1,3(2H,4H)-dione] registered a melting point of 214 to 215 °C. Moreover, the IC50 in series [1] is 1200 nM. In addition, the IC50 in series [2] is 39700 nM. Further, the IC50 in series [3] is more than 50000 nM. Moreover, the IC50 in series [4] is 720 nM. In series [5], the IC50 was 2400 nM. In addition, the IC50 in series [6] was 1000 nM. Also, the IC50 in series [7] is 140 nM.

`C[C@@H]1CN(c2ccc(N/C=C3\C(=O)NC(=O)c4ccc(-c5ccc(F)cc5)cc43)cc2F)C[C@H](C)N1` [Example 326, (4Z)-4-[({4-[(3R,5S)-3,5-Dimethylpiperazin-1-yl]-3-fluorophenyl}amino)methylene]-6-(4-fluorophenyl)isoquinoline-1,3(2H,4H)-dione] returned a melting point of 182 to 183 °C. Besides, in series [1], the IC50 turned out to be 980 nM. For the same compound, the IC50 in series [2] turned out to be 31400 nM. The IC50 in series [3] is more than 50000 nM. In addition, the IC50 in series [4] was 1000 nM. In addition, the IC50 in series [5] turned out to be 3700 nM. Moreover, the IC50 in series [6] came out at 1800 nM. Besides, in series [7], the IC50 amounted to 9200 nM.

With `CN1CCC(c2ccc(N/C=C3\C(=O)NC(=O)c4ccc(-c5ccsc5)cc43)cc2)CC1` [Example 327, (4Z)-4-({[4-(1-Methylpiperidin-4-yl)phenyl]amino}methylene)-6-thien-3-ylisoquinoline-1,3(2H,4H)-dione], the melting point was 217 to 218 °C. Moreover, the IC50 in series [1] was found to be 2500 nM. The IC50 in series [2] was more than 50000 nM. The IC50 in series [3] is more than 50000 nM. Moreover, the IC50 in series [4] turned out to be 1500 nM. Also, in series [5], the IC50 is 2900 nM. Further, the IC50 in series [6] turned out to be 2200 nM. Further, the IC50 in series [7] is 60 nM.

On to `CN1CCN(c2ccc(N/C=C3\C(=O)NC(=O)c4ccc(-n5cccc5)cc43)cc2F)CC1` [Example 328, (4Z)-4-({[3-Fluoro-4-(4-methylpiperazin-1-yl)phenyl]amino}methylene)-6-(1H-pyrrol-1-yl)isoquinoline-1,3(2H,4H)-dione], for which the melting point is 206 to 207 °C. Further, the IC50 in series [1] stood at 1600 nM. Moreover, the IC50 in series [2] was more than 50000 nM. For the same compound, the IC50 in series [3] was more than 50000 nM. Also, in series [4], the IC50 came out at 2400 nM. Further, in series [5], the IC50 was determined as 8700 nM. For the same compound, the IC50 in series [6] was 1900 nM. For the same compound, the IC50 in series [7] turned out to be 770 nM.

Compound `COC[C@H]1CCCN1Cc1ccc(N/C=C2\C(=O)NC(=O)c3ccc(-c4ccoc4)cc32)cc1` [Example 330, (4Z)-6-(3-Furyl)-4-{[(4-{[(2R)-2-(methoxymethyl)pyrrolidin-1-yl]methyl}phenyl)amino]methylene}isoquinoline-1,3(2H,4H)-dione] came in with a melting point of 130 to 131 °C. Further, the IC50 in series [1] came to 1000 nM. Further, the IC50 in series [2] was more than 50000 nM. The IC50 in series [3] is more than 50000 nM. In series [4], the IC50 was 2100 nM. Also, in series [5], the IC50 is 2300 nM. In series [6], the IC50 was found to be 690 nM. Besides, the IC50 in series [7] is 200 nM.

Compound `COC[C@H]1CCCN1Cc1ccc(N/C=C2\C(=O)NC(=O)c3ccc(-c4ccsc4)cc32)cc1` [Example 331, (4Z)-4-{[(4-{[(2R)-2-(Methoxymethyl)pyrrolidin-1-yl]methyl}phenyl)amino]methylene}-6-thien-3-ylisoquinoline-1,3(2H,4H)-dione] showed a melting point of 95 to 96 °C. Further, in series [1], the IC50 was 3300 nM. Further, the IC50 in series [2] is more than 50000 nM. Further, in series [3], the IC50 is more than 50000 nM. In addition, the IC50 in series [4] came out at 1500 nM. Moreover, the IC50 in series [5] is 3000 nM. Further, the IC50 in series [6] amounted to 1700 nM. In addition, the half-inhibitory concentration (IC50) in series [7] is 170 nM.

`COc1cnc(CN/C=C2\C(=O)NC(=O)c3ccc(Br)cc32)cc1O` [Example 332, 6-Bromo-4-{[(4-hydroxy-5-methoxy-pyridin-2-ylmethyl)-amino]-methylene}-4H-isoquinoline-1,3-dione]: the melting point is 209 to 211 °C (dec.). The IC50 in series [1] was 540 nM. In series [2], the IC50 was 21300 nM. In addition, the IC50 in series [3] worked out at 2200 nM. Moreover, the IC50 in series [4] stood at 3500 nM. Moreover, the IC50 in series [5] was 1300 nM. Moreover, in series [6], the IC50 worked out at 3200 nM. Moreover, the IC50 in series [7] is 120 nM.
